Assay results from EP1561465A2, “Methods of use of fluoroquinolone compounds against bacteria” (LG Life Sciences, Ltd., priority 1999, dated 2001).
In brackets after ≈: the same amount, converted by molar mass. Read-outs that look alike come from different tables or passages of the source.

Columns and labels:
Type in all cases: cell-based
Staphylococcus aureus = experiment: MIC by agar dilution (NCCLS), 411 isolates Buenos Aires 1998-99; conditions: for MIC90: Staphylococcus aureus
Haemophilus influenzae = experiment: MIC by broth microdilution (NCCLS), dried MicroScan panels, clinical isolates 1998-1999; conditions: for MIC90: Haemophilus influenzae
E. coli = experiment: MIC and MBC by microdilution in Mueller-Hinton broth, uropathogens
Protocol: (§1) MICs and MBCs were determined by a microdilution method with Mueller-Hinton broth. An inoculum of 1.3-9.4 x 10^5 colony forming units (CFU) per ml was used.
(§2) Strains included a reference strain E. coli ATCC 25922, susceptible to nalidixic acid (Nal-S) and the following clinical isolates obtained from complicated UTI patients: E. coli (resistant to nalidixic acid), K. pneumoniae, P. mirabilis , P. aeruginosa, […] (3 strains) and Enterococcus faecalis (2 strains).

E. faecalis [1] = experiment: as above; conditions: Enterococcus faecalis
Protocol: as §1, §2

K. pneumoniae [2] = experiment: as above
Protocol: as §1, §2

P. aeruginosa [3] = experiment: as above
Protocol: as §1, §2

P. mirabilis = experiment: as above
Protocol: as §1, §2

S. aureus = experiment: as above; conditions: Staphylococcus aureus
Protocol: as §1, §2

K. pneumoniae [4] = experiment: Urinary bactericidal titers (UBT) and AUBTC of volunteers' urine; conditions: K. pneumoniae (16) Laboratory No. 595; urine after gemifloxacin 320 mg or ofloxacin 400 mg
P. aeruginosa [5] = experiment: as above; conditions: P. aeruginosa (16) Laboratory No. 568; urine after gemifloxacin 320 mg or ofloxacin 400 mg
E. faecalis [6] = experiment: as above; conditions: urine after gemifloxacin 320 mg or ofloxacin 400 mg
Yersinia enterocolitica = experiment: MIC by agar dilution (NCCLS M7-A4), 288 enteropathogenic isolates, gemifloxacin and 15 other antimicrobials; conditions: Yersinia enterocolitica N= 22
[7] = S. aureus, Methicillin resistant (n = 14)
[8] = Haemophilus influenzae (300 isolates)
[9] = E. faecalis Laboratory No. 55, inoculum 6.0 CFU 10^5/ml
[10] = E. faecalis Laboratory No. 60, inoculum 7.0 CFU 10^5/ml
[11] = S. aureus Laboratory No. 83, inoculum 7.1 CFU 10^5/ml
[12] = S. aureus Laboratory No. 161, inoculum 9.4 CFU 10^5/ml
[13] = S. aureus Laboratory No. 636, inoculum 5.6 CFU 10^5/ml

## CC1COc2c(N3CCN(C)CC3)c(F)cc3c(=O)c(C(=O)O)cn1c23 (stereo not shown) [Ofloxacin, ofloxacin]
Staphylococcus aureus; [7]
  Resistance (%): 100%
  MIC90: 16 µg/mL (≈ 44.3 µM)
Staphylococcus aureus; S. aureus, Methicillin susceptible (n = 66)
  Resistance (%): 0%
Staphylococcus aureus; Staphylococcus aureus (n = 80)
  MIC90: 8 µg/mL (≈ 22.1 µM)
Haemophilus influenzae; [8]
  MIC50: ≤ 0.06 µg/mL
  MIC Range: ≤0.06 to 0.5 µg/mL
  MIC90: ≤ 0.06 µg/mL
Haemophilus influenzae; β-lactamase negative (234)
  MIC90: ≤ 0.06 µg/mL
Haemophilus influenzae; β-lactamase positive (66)
  MIC90: 0.12 µg/mL (≈ 0.332 µM)
E. coli; E. coli ATCC 25922, inoculum 1.3 CFU 10^5/ml
  MIC: 0.06 µg/mL (≈ 0.166 µM)
E. coli; E. coli Laboratory No. 523, inoculum 3.4 CFU 10^5/ml
  MIC: 0.5 µg/mL (≈ 1.38 µM)
E. coli; Escherichia coli, ATCC25922, E. coli ATCC 25922 (reference strain), read-out: MIC
  MIC: 0.06 µg/mL (≈ 0.166 µM)
E. coli; Escherichia coli, ATCC25922, E. coli ATCC 25922, inoculum 1.3 CFU 10^5/ml
  MBC: 0.06 µg/mL (≈ 0.166 µM)
E. coli; Escherichia coli, E. coli Laboratory No. 523, inoculum 3.4 CFU 10^5/ml
  MBC: 0.5 µg/mL (≈ 1.38 µM)
E. coli; Escherichia coli, E. coli clinical isolate (0.06/0.5), read-out: MIC
  MIC: 0.5 µg/mL (≈ 1.38 µM)
E. faecalis [1]; [9]
  MBC: 128 µg/mL (≈ 354 µM)
  MIC: 32 µg/mL (≈ 88.6 µM)
E. faecalis [1]; [10]
  MBC: 2 µg/mL (≈ 5.53 µM)
  MIC: 2 µg/mL (≈ 5.53 µM)
E. faecalis [1]; E. faecalis isolate (0.06/2)
  MIC: 2 µg/mL (≈ 5.53 µM)
E. faecalis [1]; E. faecalis isolate (0.5/32)
  MIC: 32 µg/mL (≈ 88.6 µM)
K. pneumoniae [2]; K. pneumoniae Laboratory No. 595, inoculum 3.7 CFU 10^5/ml
  MIC: 0.06 µg/mL (≈ 0.166 µM)
K. pneumoniae [2]; Klebsiella pneumoniae, K. pneumoniae Laboratory No. 595, inoculum 3.7 CFU 10^5/ml
  MBC: 0.06 µg/mL (≈ 0.166 µM)
K. pneumoniae [2]; Klebsiella pneumoniae, K. pneumoniae clinical isolate, read-out: MIC
  MIC: 0.06 µg/mL (≈ 0.166 µM)
P. aeruginosa [3]; P. aeruginosa Laboratory No. 568, inoculum 5.6 CFU 10^5/ml
  MIC: 4 µg/mL (≈ 11.1 µM)
P. aeruginosa [3]; Pseudomonas aeruginosa, P. aeruginosa Laboratory No. 568, inoculum 5.6 CFU 10^5/ml
  MBC: 4 µg/mL (≈ 11.1 µM)
P. aeruginosa [3]; Pseudomonas aeruginosa, P. aeruginosa clinical isolate, read-out: MIC
  MIC: 4 µg/mL (≈ 11.1 µM)
P. mirabilis; P. mirabilis Laboratory No. 414, inoculum 2.5 CFU 10^5/ml
  MIC: 0.125 µg/mL (≈ 0.346 µM)
P. mirabilis; Proteus mirabilis
  MIC: 0.125 µg/mL (≈ 0.346 µM)
P. mirabilis; Proteus mirabilis, P. mirabilis Laboratory No. 414, inoculum 2.5 CFU 10^5/ml
  MBC: 0.125 µg/mL (≈ 0.346 µM)
S. aureus; [11]
  MBC: 0.25 µg/mL (≈ 0.692 µM)
  MIC: 0.25 µg/mL (≈ 0.692 µM)
S. aureus; [12]
  MBC: 4 µg/mL (≈ 11.1 µM)
  MIC: 4 µg/mL (≈ 11.1 µM)
S. aureus; [13]
  MBC: 32 µg/mL (≈ 88.6 µM)
  MIC: 32 µg/mL (≈ 88.6 µM)
S. aureus; S. aureus isolate (0.008/0.25)
  MIC: 0.25 µg/mL (≈ 0.692 µM)
S. aureus; S. aureus isolate (0.25/4)
  MIC: 4 µg/mL (≈ 11.1 µM)
S. aureus; S. aureus isolate (2/32), quinolone-resistant
  MIC: 32 µg/mL (≈ 88.6 µM)
K. pneumoniae [4]
  AUBTC (range): 414 (180-636)
P. aeruginosa [5]
  AUBTC (range): 99 (42-258)
E. faecalis [6]; E. faecalis (13) Laboratory No. 55
  AUBTC (range): 0 (0-54)
E. faecalis [6]; E. faecalis (16) Laboratory No. 60
  AUBTC (range): 135 (90-204)
Yersinia enterocolitica; 24 h, read-out: MIC (mg/L) Range
  MIC: 0.03 to 0.5 mg/L (≈ 0.083 to 1.38 µM)
Yersinia enterocolitica; read-out: MIC (mg/L) 50%
  MIC: 0.12 mg/L (≈ 0.332 µM)
Yersinia enterocolitica; read-out: MIC (mg/L) 90%
  MIC: 0.12 mg/L (≈ 0.332 µM)
